# Results published in patent US8501911B2, “Methods of reducing inflammation and mucus hypersecretion” (Biomarck Pharmaceuticals, Ltd, priority 1999, dated 2013).
# Residues, ends and D or L forms follow the SMILES beside them. *: point of attachment. Myristoyl = CCCCCCCCCCCCCC(=O)*
# Key:
# NHBE cells [1] = experiment: UTP-induced mucin secretion from NHBE cells (ELISA); format: cell-based, human
# Description: In Results-I-1D, NHBE cells were preincubated with the indicated inhibitor for 15 min and then stimulated with 100 μM UTP for 2 h. Secreted mucin in response to the treatment was collected and assayed by ELISA. Data are presented as mean±S.E. (n=6 at each point).
# UTP is a well defined pathophysiologically relevant mucin secretagogue. Lethem ct al., Am. J. Respir. Cell Mol. Biol. 9, 315-322 (1993). […] To determine whether PKC and PKG were involved in regulation of mucin secretion in response to a pathophysiological stimulus, effects of PKC/PKG inhibitors on UTP-induced mucin secretion were investigated. NHBE cells were preincubated with various inhibitors for 15 min and then exposed to UTP (100 μM) plus the inhibitor for 2 h. The secreted mucin was measured by ELISA. […] Apparently, mucin secretion in NHBE cells may be regulated by a signaling mechanism involving both PKC and PKG.
# (§1) Peptide Blocking Studies—NHBE cells were preincubated with either the MANS or the RNS peptide (1-100 μM) for 15 min, and then PMA (100 nM)+8-Br-cGMP (1 μM) or UTP (100 μM) was added, and cells were incubated for an additional 15 min or 2 h. respectively. Mucin secretion was measured by ELISA and experimental results are designated as Results-I-2B-1 and Results-I-2B-2, as follows.
# PP2A is an essential component of the mucin secretory pathway. NHBE cells were preincubated with the indicated concentration of fostriecin, okadaic acid (500 nM), or medium alone for 15 min and then stimulated with PMA (100 nM)+8-Br-cGMP (1 μM) for 15 min or with UTP (100 μM) for 2 h. Secreted mucin was measured by ELISA. […] Thus, dephosphorylation of MARCKS by a PKG-activated PP2A appears to be an essential component of the signaling pathway leading to mucin granule exocytosis.
# (§2) Measurement of Mucin Secretion by ELISA—Before collection of “base line” and “test” mucin samples, the accumulated mucus at the apical surface of the cells was removed by washing with phosphate-buffered saline, pH 7.2. To collect the base-line secretion, cells were incubated with medium alone, and secreted mucin in the apical medium was collected and reserved. Cells were rested for 24 h and then exposed to medium containing the selected stimulatory and/or inhibitory reagents (or appropriate controls), after which secreted mucin was collected and reserved as the test sample. Incubation times for the base line and the test were the same but varied depending on the test reagent utilized. Both base line and test secretions were analyzed by ELISA using an antibody capture method as known in the art. See, e.g., Harlow et al., Antibodies: A Laboratory Manual, pp. 570-573, Cold Spring Harbor Laboratory, Cold Spring Harbor, N.Y. (1988). The primary antibody for this assay was 17Q2 (Babco, Richmond, Calif.), a monoclonal antibody that reacts specifically with a carbohydrate epitope on human airway mucins. The ratio of test/base-line mucin, which is similar to a “secretory index”, was used to quantify mucin secretion, allowing each culture dish to serve as its own control and thus, minimizing deviation caused by variability among culture wells. Wright et al., Am. J. Physiol. 271, L854-L861 (1996). Levels of mucin secretion were reported as percentage of the medium control.
# These experiments were carried out similarly to those described in Example 7. To test for stimulated secretion, the cells were exposed apically and basolaterally to uridine 5′-triphosphate (UTP) at a concentration of 0.1 mM in media. Cells were pre-incubated for 15 minutes with the MANS peptide and test cultures were then co-incubated with the MANS peptide and UTP for 45 minutes.
# NHBE cells were pre-incubated with okadaic acid (500 nM) for 15 min at 37° C./5% CO2, then stimulated with PMA (100 nM)+8-Br-cGMP (1 μM) for 15 min, or with UTP (0.1 mM) for 2 hours. Secreted mucin in the apical medium was collected and assayed by ELISA. […]
# NHBE cells [2] = experiment: PMA+8-Br-cGMP-induced mucin secretion from NHBE cells (ELISA); format: cell-based, human
# Description: as §1, with “follows. […]” for “follows.”
# as §2
# MARCKS-related Peptides—Both the myristoylated N-terminal sequence (MANS) and the random N-terminal sequence (RNS) peptides were synthesized at Genemed Synthesis, Inc. (San Francisco, Calif.), then purified by high pressure liquid chromatography (>95% pure), and confirmed by mass spectroscopy with each showing one single peak with an appropriate molecular mass. The MANS peptide consisted of sequence identical to the first 24 amino acids of MARCKS, i.e. the myristoylated N-terminal region that mediates MARCKS insertion into membranes, MA-[…] (SEQ ID NO: 1) (where MA=N-terminal myristate chain). The corresponding control peptide (RNS) contained the same amino acid composition as the MANS but arranged in random order, MA-[…] (SEQ ID NO: 26). The presence of the hydrophobic myristate moiety in these synthetic peptides enhances their permeability to the plasma membranes, enabling the peptides to be taken up readily by cells. To determine the effects of these peptides on mucin secretion, cells were preincubated with the peptides for 15 min prior to addition of secretagogues, and mucin secretion was then measured by ELISA.
# Antisense Oligonucleotides—MARCKS antisense oligonucleotide and its corresponding control oligonucleotide were synthesized at Biognostik GmbH (Gottingen, Germany). NHBE cells were treated with 5 μM antisense or control oligonucleotide apically for 3 days (in the presence of 2 μg/ml lipofectin for the first 24 h). Cells were then incubated with secretagogues, and mucin secretion was measured by ELISA. Total RNA and protein were isolated from treated cells. MARCKS mRNA was assessed by Northern hybridization according to conventional procedures using human MARCKS cDNA as a probe. MARCKS protein level was determined by Western blot using purified anti-MARCKS IgG1 (clone 2F12) as the primary detection antibody.
# The effect on mucus secretion of a myristoylated peptide containing the first 24 amino acids of the human MARCKS protein (MANS; myristoylated N-terminal sequence; SEQ ID NO: ) was tested. Cultured normal human bronchial epithelial cells as described above were used. […]
# [3] = test system: MARCKS-related mucus secretion; experiment: Inhibition of MARCKS-related mucus (mucin) secretion, Table 1; format: cell-based; conditions: at 100 μM of test peptide
compound,measurement,setting,value
"CCCCCCCCCCCCCC(=O)NCC(=O)N[C@H](C(=O)N[C@@H](C)C(=O)N1CCC[C@H]1C(=O)N[C@@H](C)C(=O)N[C@@H](C)C(=O)N[C@@H](CCC(=O)O)C(=O)NCC(=O)N[C@@H](C)C(=O)NCC(=O)N[C@@H](C)C(=O)N[C@@H](CCC(=O)O)C(=O)N[C@H](C(=O)N[C@@H](CCCCN)C(=O)N[C@@H](CCCNC(=N)N)C(=O)N[C@@H](C)C(=O)N[C@@H](CO)C(=O)N[C@@H](C)C(=O)N[C@@H](CCC(=O)O)C(=O)N[C@@H](C)C(=O)N[C@@H](CCCCN)C(=O)N[C@@H](CCC(N)=O)C(=O)N[C@@H](C)C(=O)N[C@@H](Cc1ccccc1)C(=O)O)C(C)C)[C@@H](C)O [RNS peptide, reference compound] (Myristoyl-GTAPAAEGAGAEVKRASAEAKQAF-OH; C-terminus assumed)",Mucin secretion as percent of control,"NHBE cells [1]; peptide 1 μM, 15 min preincubation, then UTP 100 μM 2 h",154%
same,Mucin secretion as percent of control,"NHBE cells [1]; peptide 100 μM, 15 min preincubation, then UTP 100 μM 2 h",158%
same,Mucin secretion as percent of control,"NHBE cells [1]; test agent 10 μM, 15 min preincubation, then UTP 100 μM 2 h",155%
same,Mucin secretion as % of control,"NHBE cells [2]; peptide 1 μM, 15 min preincubation, then PMA 100 nM+8-Br-cGMP 1 μM 15 min (Results-I-2B-1)",216%
same,Mucin secretion as % of control,"NHBE cells [2]; peptide 10 μM, 15 min preincubation, then PMA 100 nM+8-Br-cGMP 1 μM 15 min (Results-I-2B-1)",208%
same,Mucin secretion as % of control,"NHBE cells [2]; peptide 100 μM, 15 min preincubation, then PMA 100 nM+8-Br-cGMP 1 μM 15 min (Results-I-2B-1)",206%
same,% Inhibition Mucin,[3],0%
C=C1[C@@H](O)[C@@H]2O[C@]3(CC[C@H](/C=C/[C@@H](C)[C@@H]4CC(C)=C[C@@]5(O[C@H](C[C@@](C)(O)C(=O)O)CC[C@H]5O)O4)O3)CC[C@H]2O[C@@H]1[C@@H](O)C[C@H](C)[C@H]1O[C@@]2(CCCCO2)CC[C@H]1C [okadaic acid],activity at 0.5 µM,"NHBE cells [1]; Homo sapiens, NHBE, read-out: Mucin secretion as percent of control, inhibitor 500 nM, 15 min preincubation, then UTP 100 μM 2 h",112%
same,Mucin secretion as percent of control,"NHBE cells [1]; inhibitor 500 nM, 15 min preincubation, then UTP 100 μM 2 h",110%
same,Reduction in mucin secretion level from UTP-stimulated level,"NHBE cells [1]; inhibitor 500 nM, UTP 0.1 mM 2 h",31%
same,activity at 0.5 µM,"NHBE cells [2]; Homo sapiens, NHBE, read-out: Mucin secretion as % of control, inhibitor 500 nM, 15 min preincubation, then PMA 100 nM+8-Br-cGMP 1 μM 15 min",157%
same,Reduction in mucin secretion level from PMA+8-Br-cGMP-stimulated level,NHBE cells [2]; inhibitor 500 nM,27%
same,Mucin secretion as % of control,"NHBE cells [2]; inhibitor 500 nM, 15 min preincubation, then PMA 100 nM+8-Br-cGMP 1 μM 15 min",155%
TNF-α,"Mucin secretion level, % of control","NHBE cells [1]; TNF-α 10 ng/ml 4 h, then UTP 0.1 mM 2 h",191%
same,"Mucin secretion level, % of control","NHBE cells [2]; TNF-α 10 ng/ml 4 h, then PMA 100 nM+8-Br-cGMP 1 μM 15 min",255%
"CCCCCCCCCCCCCC(=O)NCC(=O)N[C@@H](C)C(=O)N[C@@H](CCC(N)=O)C(=O)N[C@@H](Cc1ccccc1)C(=O)N[C@@H](CO)C(=O)N[C@@H](CCCCN)C(=O)N[C@H](C(=O)N[C@@H](C)C(=O)N[C@@H](C)C(=O)N[C@@H](CCCCN)C(=O)NCC(=O)N[C@@H](CCC(=O)O)C(=O)O)[C@@H](C)O [SEQ ID NO: 13, N-myristoyl-GAQFSKTAAKGE] (Myristoyl-GAQFSKTAAKGE-OH; C-terminus assumed)",% Inhibition Mucin,[3],77%
C[C@@](O)(/C=C/[C@H]1CC=CC(=O)O1)[C@@H](C[C@@H](O)\C=C/C=C\C=C\CO)OP(=O)(O)O [fostriecin],activity at 0.01 µM,"NHBE cells [1]; Homo sapiens, NHBE, inhibitor 10 nM, 15 min preincubation, then UTP 100 μM 2 h, read-out: Mucin secretion as percent of control",152%
same,activity at 0.1 µM,"NHBE cells [1]; Homo sapiens, NHBE, inhibitor 100 nM, 15 min preincubation, then UTP 100 μM 2 h, read-out: Mucin secretion as percent of control",134%
same,activity at 0.5 µM,"NHBE cells [1]; Homo sapiens, NHBE, inhibitor 500 nM, 15 min preincubation, then UTP 100 μM 2 h, read-out: Mucin secretion as percent of control",124%
same,activity at 0.001 µM,"NHBE cells [2]; Homo sapiens, NHBE, inhibitor 1 nM, 15 min preincubation, then PMA 100 nM+8-Br-cGMP 1 μM 15 min, read-out: Mucin secretion as % of control",198%
same,activity at 0.01 µM,"NHBE cells [2]; Homo sapiens, NHBE, inhibitor 10 nM, 15 min preincubation, then PMA 100 nM+8-Br-cGMP 1 μM 15 min, read-out: Mucin secretion as % of control",182%
same,activity at 0.1 µM,"NHBE cells [2]; Homo sapiens, NHBE, inhibitor 100 nM, 15 min preincubation, then PMA 100 nM+8-Br-cGMP 1 μM 15 min, read-out: Mucin secretion as % of control",170%
same,activity at 0.5 µM,"NHBE cells [2]; Homo sapiens, NHBE, inhibitor 500 nM, 15 min preincubation, then PMA 100 nM+8-Br-cGMP 1 μM 15 min, read-out: Mucin secretion as % of control",134%
"CCCCCCCCCCCCCC(=O)NCC(=O)N[C@@H](C)C(=O)N[C@@H](CCC(N)=O)C(=O)N[C@@H](Cc1ccccc1)C(=O)N[C@@H](CO)C(=O)N[C@@H](CCCCN)C(=O)N[C@H](C(=O)N[C@@H](C)C(=O)N[C@@H](C)C(=O)N[C@@H](CCCCN)C(=O)O)[C@@H](C)O [SEQ ID NO: 15, N-myristoyl-GAQFSKTAAK] (Myristoyl-GAQFSKTAAK-OH; C-terminus assumed)",% Inhibition Mucin,[3],67.5%
